The record followed here is ChEMBL document CHEMBL1138729, “Aminoimidazo[1,2-a]pyridines as a new structural class of cyclin-dependent kinase inhibitors. Part 1: Design, synthesis, and biological evaluation” (Bioorg Med Chem Lett, 2004).

Assay [1] addresses Cyclin-dependent kinase 2 (Homo sapiens, UniProt P24941). In words: Inhibitory activity against Cyclin-dependent kinase 2 (CDK2).
Assay [2] can be described thus: Inhibitory activity against Cyclin-dependent kinase 1 (CDK1).
For assay [3], the target named is Cyclin-dependent kinase 4 (Homo sapiens, UniProt P11802). In words: Inhibitory activity against Cyclin-dependent kinase 4 (CDK4).
Sequence of Cyclin-dependent kinase 4 (P11802 whole entry): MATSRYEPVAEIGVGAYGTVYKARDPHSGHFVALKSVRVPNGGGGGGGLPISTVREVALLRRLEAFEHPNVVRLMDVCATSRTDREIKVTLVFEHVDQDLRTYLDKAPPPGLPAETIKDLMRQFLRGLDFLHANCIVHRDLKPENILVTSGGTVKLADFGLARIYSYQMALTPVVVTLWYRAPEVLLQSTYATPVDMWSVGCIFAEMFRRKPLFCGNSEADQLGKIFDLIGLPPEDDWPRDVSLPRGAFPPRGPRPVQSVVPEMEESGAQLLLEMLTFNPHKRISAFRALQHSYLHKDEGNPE

Turning to `Nc1nc2ccc(C(=O)c3c(F)cccc3F)cn2c1C(=O)c1ccncc1`, in assay [1], the IC50 was determined as 2540 nM.

Turning to `COc1cc(F)c(C(=S)c2c(N)nc3ccc(C(=O)c4c(F)cccc4F)cn23)c(F)c1`, the IC50 in assay [2] worked out at 143 nM; in assay [1], 29 nM; in assay [3] it was 464 nM.

For the molecule `Nc1nc2ccc(C(=O)c3c(F)cccc3F)cn2c1C(=O)c1cccs1`, in assay [1], inhibition was half-maximal at 547 nM (IC50).

In assay [1], `Nc1nc2ccc(C(=O)c3c(Cl)cccc3Cl)cn2c1C(=O)c1c(F)cc(O)cc1F` yielded an IC50 of 52 nM.

For `Nc1nc2ccc(C(=O)c3c(F)cccc3F)cn2c1C(=S)c1ccccc1`, the results for the IC50 in assay [2], in assay [1] and in assay [3] were 165 nM, 214 nM and 1890 nM, respectively.

Regarding `Nc1nc2ccc(C(=O)c3ccccc3C(F)(F)F)cn2c1C(=O)c1c(F)cccc1F`, it took 1070 nM to reach half-maximal inhibition in assay [1] (IC50).

Consider `C=C(c1ccc2nc(N)c(C(=O)c3c(F)cccc3F)n2c1)c1c(F)cccc1F`, for which the IC50 worked out at 93 nM in assay [2], 63 nM in assay [1] and 1030 nM in assay [3].

As to `N#C/C=C(/c1ccc2nc(N)c(C(=O)c3c(F)cccc3F)n2c1)c1c(F)cccc1F`, the figures for the IC50 in assay [2], in assay [1] and in assay [3] were 53 nM, 160 nM and 1550 nM, respectively.

As to `Nc1nc2ccc(C(=O)c3c(Cl)cccc3Cl)cn2c1C(=O)c1c(F)cc(C(=O)O)cc1F`, the IC50 in assay [2] is 328 nM; in assay [1], 95 nM; in assay [3], 2590 nM.

For `COc1ccccc1C(=O)c1c(N)nc2ccc(C(=O)c3c(F)cccc3F)cn12`, the IC50 was 475 nM in assay [2], 68 nM in assay [1] and 1970 nM in assay [3].

With `Nc1nc2ccc(/C(=C/c3nn[nH]n3)c3c(F)cccc3F)cn2c1C(=O)c1c(F)cccc1F`, the figures for the IC50 in assay [2], in assay [1] and in assay [3] were 96 nM, 1690 nM and 1700 nM, respectively.

Turning to `COc1ccccc1C(=O)c1ccc2nc(N)c(C(=O)c3c(F)cccc3F)n2c1`, the IC50 in assay [1] came to 603 nM.

In turn, `Cc1ccccc1C(=O)c1ccc2nc(N)c(C(=O)c3c(F)cccc3F)n2c1` showed an IC50 in assay [1] of 1290 nM.

Turning to `Nc1nc2ccc(C(=O)c3ccccc3Cl)cn2c1C(=O)c1c(F)cccc1F`, the midpoint of inhibition in assay [1], the IC50, lay at 428 nM.

`Nc1nc2ccc(C(=O)c3c(F)cccc3F)cn2c1C(=S)c1c(F)cccc1F`: the IC50 in assay [2] amounted to 105 nM; in assay [1], 26 nM; in assay [3], 786 nM.

`CN(C)CCOc1cc(F)c(C(=O)c2c(N)nc3ccc(C(=O)c4c(Cl)cccc4Cl)cn23)c(F)c1` had an IC50 in assay [1] of 984 nM.

`N#C/C=C(\c1ccc2nc(N)c(C(=O)c3c(F)cccc3F)n2c1)c1c(F)cccc1F` showed an IC50 in assay [1] of 896 nM.

Consider `Nc1nc2ccc(C(=O)c3c(Cl)cccc3Cl)cn2c1C(=O)c1c(F)cccc1F`, for which, in assay [1], the IC50 turned out to be 53 nM.

With `COc1cccc(OC)c1C(=S)c1c(N)nc2ccc(C(=O)c3c(F)cccc3F)cn12`, the IC50 in assay [1] was 462 nM.

Consider `CN1CCN(CCOc2cc(F)c(C(=O)c3c(N)nc4ccc(C(=O)c5c(Cl)cccc5Cl)cn34)c(F)c2)CC1`, for which, in assay [1], the IC50 came out at 812 nM.

With `COc1cc(F)c(C(=O)c2c(N)nc3ccc(C(=O)c4c(F)cccc4F)cn23)c(F)c1`, the IC50 in assay [2] amounted to 132 nM; in assay [1], 91 nM; in assay [3], 838 nM.

With `Nc1nc2ccc(C(=O)c3ccccc3OC(F)(F)F)cn2c1C(=O)c1c(F)cccc1F`, the IC50 in assay [1] came out at 2170 nM.

With `NC(=O)c1cc(F)c(C(=O)c2c(N)nc3ccc(C(=O)c4c(Cl)cccc4Cl)cn23)c(F)c1`, the IC50 in assay [2] stood at 154 nM; in assay [1] it was 46 nM; in assay [3], 1140 nM.

For `Nc1nc2ccc(C(=O)c3c(F)cccc3F)cn2c1C(=O)c1c(F)cccc1Cl`, the IC50 was found to be 239 nM in assay [2], 102 nM in assay [1] and 827 nM in assay [3].

As to `Nc1nc2ccc(C(=O)c3c(F)cccc3F)cn2c1C(=O)c1ccc(Cl)cc1`, in assay [1], 1710 nM corresponded to half-maximal inhibition (IC50).

As to `Nc1nc2ccc(C(=O)c3c(F)cccc3F)cn2c1C(=O)c1c(F)cccc1F`, the IC50 came to 57 nM in assay [2], 122 nM in assay [1] and 1080 nM in assay [3].

Turning to `Nc1nc2ccc(C(=O)c3c(F)cccc3F)cn2c1C(=O)c1ccccc1`, the IC50 in assay [3] was found to be 5050 nM.

In the case of `Nc1nc2ccc(C(=O)c3c(F)cccc3Cl)cn2c1C(=O)c1c(F)cccc1F`, the IC50 in assay [2] was 104 nM; in assay [1] it was 33 nM; in assay [3], 810 nM.

Molecule `Nc1nc2ccc(C(=O)c3ccccc3)cn2c1C(=O)c1c(F)cccc1F` returned an IC50 in assay [1] of 1930 nM.

`Nc1nc2ccc(C(=O)c3c(F)cccc3F)cn2c1C(=O)c1c(Cl)cccc1Cl`: the IC50 came out at 209 nM in assay [2], 121 nM in assay [1] and 359 nM in assay [3].

The term IC50 denotes the concentration at which inhibition is half-maximal. Low values mean inhibition by little substance, high ones a need for much substance.
